Experimental findings from patent US11179383B2 (Gilead Sciences, Inc., priority 2018, dated 2021) are described below.

The assay deals with T1, α4β7 integrin (Homo sapiens, UniProt P13612+P26010).
T1 construct: monitoring the capture of α4β7 integrin expressing cells on a recombinant MadCAM-1 extracellular domain-coated plate; endogenous in cells; host or cells: RPMI8866 cells
T1 sequence (P13612 34-1032): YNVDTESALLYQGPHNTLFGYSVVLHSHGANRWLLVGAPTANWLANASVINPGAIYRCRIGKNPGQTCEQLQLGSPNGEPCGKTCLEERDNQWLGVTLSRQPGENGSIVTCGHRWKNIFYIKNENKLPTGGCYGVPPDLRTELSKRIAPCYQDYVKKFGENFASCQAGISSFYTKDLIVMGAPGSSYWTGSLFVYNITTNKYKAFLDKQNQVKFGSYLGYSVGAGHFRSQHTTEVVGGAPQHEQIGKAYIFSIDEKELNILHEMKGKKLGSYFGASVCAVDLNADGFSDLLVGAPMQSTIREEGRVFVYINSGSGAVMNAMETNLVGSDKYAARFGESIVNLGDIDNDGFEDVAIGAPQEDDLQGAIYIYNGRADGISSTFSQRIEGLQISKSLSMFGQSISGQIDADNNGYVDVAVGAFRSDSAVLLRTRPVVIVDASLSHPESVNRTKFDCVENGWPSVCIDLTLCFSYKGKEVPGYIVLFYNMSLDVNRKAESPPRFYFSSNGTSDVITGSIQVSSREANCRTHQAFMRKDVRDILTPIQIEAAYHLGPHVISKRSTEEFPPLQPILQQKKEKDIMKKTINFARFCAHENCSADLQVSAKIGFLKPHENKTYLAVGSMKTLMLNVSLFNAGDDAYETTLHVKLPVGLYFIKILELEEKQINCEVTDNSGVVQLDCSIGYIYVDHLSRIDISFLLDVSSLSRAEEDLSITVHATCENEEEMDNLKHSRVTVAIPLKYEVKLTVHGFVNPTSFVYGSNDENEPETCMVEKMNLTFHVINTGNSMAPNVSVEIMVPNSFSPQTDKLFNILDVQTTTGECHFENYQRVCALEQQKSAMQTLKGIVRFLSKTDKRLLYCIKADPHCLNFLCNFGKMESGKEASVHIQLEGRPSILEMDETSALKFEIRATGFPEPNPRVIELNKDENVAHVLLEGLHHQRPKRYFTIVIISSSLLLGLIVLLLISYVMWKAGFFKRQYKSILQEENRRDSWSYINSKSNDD
T1 sequence (P26010 20-798): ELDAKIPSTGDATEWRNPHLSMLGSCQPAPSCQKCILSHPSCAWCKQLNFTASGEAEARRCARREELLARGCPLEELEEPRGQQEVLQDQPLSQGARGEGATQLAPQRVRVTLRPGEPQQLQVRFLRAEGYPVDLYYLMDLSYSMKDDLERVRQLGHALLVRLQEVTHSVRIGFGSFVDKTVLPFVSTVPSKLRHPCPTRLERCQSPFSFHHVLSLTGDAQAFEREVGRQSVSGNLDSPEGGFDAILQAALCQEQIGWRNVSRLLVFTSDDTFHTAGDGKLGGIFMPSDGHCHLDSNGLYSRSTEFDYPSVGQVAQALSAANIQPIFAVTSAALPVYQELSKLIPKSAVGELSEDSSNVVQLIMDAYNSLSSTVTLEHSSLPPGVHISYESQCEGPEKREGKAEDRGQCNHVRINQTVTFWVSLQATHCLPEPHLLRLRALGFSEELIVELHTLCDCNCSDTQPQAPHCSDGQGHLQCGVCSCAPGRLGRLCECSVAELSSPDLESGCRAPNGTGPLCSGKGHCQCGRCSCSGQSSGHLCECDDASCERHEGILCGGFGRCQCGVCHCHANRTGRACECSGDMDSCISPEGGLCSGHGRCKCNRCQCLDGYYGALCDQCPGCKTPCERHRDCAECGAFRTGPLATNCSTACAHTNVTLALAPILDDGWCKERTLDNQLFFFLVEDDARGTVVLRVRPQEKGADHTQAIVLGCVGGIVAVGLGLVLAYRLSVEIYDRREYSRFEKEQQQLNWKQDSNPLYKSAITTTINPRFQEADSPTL
The assay is described as follows: α4β7 Integrin Cell Capture Assay. It is filed as cell-based. Conditions: capture of α4β7 integrin expressing RPMI8866 cells on recombinant MadCAM-1 extracellular domain-coated plate; DMEM+0.5% FBS+0.5 mM MnCl2; read-out: EC50 α4β7. Put shortly:
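RPMI8866 cells in DMEM + 0.5% FBS + 0.5 mM MnCl2 preincubated with compound 1 h at 37 °C, then allowed to bind 30 min at 37 °C to plates coated with MAdCAM-1 extracellular domain (1.0 μg/mL). Cells fixed with glutaraldehyde, Hoechst-stained, imaged and bound cells counted; EC50 from cell count versus concentration.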

In the case of `CCOCc1cc(OC)c(-c2ccc(C[C@H](NC(=O)c3c(F)cc(NS(=O)(=O)c4ccc(-c5ccnc(F)c5)cc4)cc3F)C(=O)O)c3c2cnn3C)c(OC)c1` [Example 144], the EC50 is 4.9 nM. The same measure for `CCOCc1cc(OC)c(-c2ccc(CC(NC(=O)c3c(F)cc(NS(=O)(=O)c4ccc(-c5ccnc(F)c5)cc4)cc3F)C(=O)O)c3cnn(C)c23)c(OC)c1` (stereo not drawn) [Example 146, 2-(2,6-difluoro-4-((4-(2-fluoropyridin-4-yl)phenyl)sulfonamido)benzamido)-3-(7-(4-(ethoxymethyl)-2,6-dimethoxyphenyl)-1-methyl-1H-indazol-4-yl)propanoic acid]: 0.6 nM; for `CCOCc1cc(OC)c(-c2ccc(C[C@H](NC(=O)c3c(F)cc(NS(=O)(=O)c4ccc(-c5ccnc(F)c5)cc4)cc3F)C(=O)O)c3nsnc23)c(OC)c1` [Example 149, (S)-2-(2,6-difluoro-4-((4-(2-fluoropyridin-4-yl)phenyl)sulfonamido)benzamido)-3-(7-(4-(ethoxymethyl)-2,6-dimethoxyphenyl)benzo[c]-[1,2,5]thiadiazol-4-yl)propanoic acid]: 0.3 nM. Take `O=C(N[C@@H](Cc1ccc(-c2c(Cl)cc(F)cc2Cl)c2nsnc12)C(=O)O)c1c(F)cccc1F` [Example 150, (S)-3-(7-(2,6-dichloro-4-fluorophenyl)benzo[c][1,2,5]thiadiazol-4-yl)-2-(2,6-difluorobenzamido)propanoic acid]: the 50% effective concentration (EC50) was determined as 181 nM.

In the case of `CCOCc1cc(OC)c(-c2ccc(C[C@H](NC(=O)c3c(F)cc(NS(=O)(=O)c4ccc(-c5ccnc(F)c5)cc4)cc3F)C(=O)O)c3nc(C)oc23)c(OC)c1` [Example 151, (S)-2-(2,6-difluoro-4-((4-(2-fluoropyridin-4-yl)phenyl)sulfonamido)benzamido)-3-(7-(4-(ethoxymethyl)-2,6-dimethoxyphenyl)-2-methylbenzo[d]oxazol-4-yl) propanoic acid], the EC50 stood at 5.8 nM. Consider `CCOCc1cc(OC)c(-c2ccc(C[C@H](NC(=O)c3c(F)cccc3F)C(=O)O)c3nc(C)oc23)c(OC)c1` [Example 152, (S)-2-(2,6-difluorobenzamido)-3-(7-(4-(ethoxymethyl)-2,6-dimethoxyphenyl)-2-methylbenzo[d]oxazol-4-yl)propanoic acid], for which the EC50 turned out to be 57.8 nM. The same measure for `CCOCc1cc(OC)c(-c2ccc(C[C@H](NC(=O)c3c(Cl)cccc3Cl)C(=O)O)c3nc(C)oc23)c(OC)c1` [Example 153, (S)-2-(2,6-dichlorobenzamido)-3-(7-(4-(ethoxymethyl)-2,6-dimethoxyphenyl)-2-methylbenzo[d]oxazol-4-yl)propanoic acid]: 28.4 nM; for `COc1cccc(OC)c1-c1ccc(C[C@H](NC(=O)c2c(F)cc(NS(=O)(=O)c3ccc(-c4ccnc(F)c4)cc3)cc2F)C(=O)O)c2nccnc12` [Example 154, (S)-2-(2,6-difluoro-4-((4-(2-fluoropyridin-4-yl)phenyl)sulfonamido)benzamido)-3-(8-(2,6-dimethoxyphenyl)quinoxalin-5-yl)propanoic acid]: 2.6 nM. The same measure for `CCOCc1cc(OC)c(-c2ccc(C[C@H](NC(=O)c3c(F)cc(NS(=O)(=O)c4ccc(-c5ccnc(F)c5)cc4)cc3F)C(=O)O)c3nccnc23)c(OC)c1` [Example 155, (S)-2-(2,6-difluoro-4-((4-(2-fluoropyridin-4-yl)phenyl)sulfonamido)benzamido)-3-(8-(4-(ethoxymethyl)-2,6-dimethoxyphenyl)quinoxalin-5-yl)propanoic acid]: 1.6 nM; for `O=C(N[C@@H](Cc1ccc(-c2c(Cl)cc(F)cc2Cl)c2nccnc12)C(=O)O)c1c(F)cccc1F` [Example 156, (S)-3-(8-(2,6-dichloro-4-fluorophenyl)quinoxalin-5-yl)-2-(2,6-difluorobenzamido)propanoic acid]: 135 nM. As to `O=C(N[C@@H](Cc1ccc(-c2c(Cl)cc(F)cc2Cl)c2nccnc12)C(=O)O)c1c(Cl)cccc1Cl` [Example 157, (S)-3-(8-(2,6-dichloro-4-fluorophenyl)quinoxalin-5-yl)-2-(2,6-dichlorobenzamido)propanoic acid], the EC50 came out at 161 nM. The same measure for `CC[C@@H](Nc1cc(F)c(C(=O)N[C@@H](Cc2ccc(-c3c(C)c4cc(F)ccc4n(C)c3=O)c3nccnc23)C(=O)O)c(F)c1)C(F)(F)F` [Example 158, (S)-2-(2,6-difluoro-4-(((R)-1,1,1-trifluorobutan-2-yl)amino)benzamido)-3-(8-(6-fluoro-1,4-dimethyl-2-oxo-1,2-dihydroquinolin-3-yl)quinoxalin-5-yl)propanoic acid]: 0.4 nM; for `Cc1c(-c2ccc(C[C@H](NC(=O)c3c(F)cccc3F)C(=O)O)c3nccnc23)c(=O)n(C)c2ccc(F)cc12` [Example 159, (S)-2-(2,6-difluorobenzamido)-3-(8-(6-fluoro-1,4-dimethyl-2-oxo-1,2-dihydroquinolin-3-yl)quinoxalin-5-yl)propanoic acid]: 1.9 nM. The same measure for `CCOCc1cc(OC)c(-c2ccc(CC(NC(=O)c3c(F)cc(NS(=O)(=O)c4ccc(-c5ccnc(F)c5)cc4)cc3F)C(=O)O)c3ccncc23)c(OC)c1` (stereo not drawn) [Example 160, 2-(2,6-difluoro-4-((4-(2-fluoropyridin-4-yl)phenyl)sulfonamido)benzamido)-3-(8-(4-(ethoxymethyl)-2,6-dimethoxyphenyl)isoquinolin-5-yl)propanoic acid]: 0.6 nM. The same measure for `COc1cccc(OC)c1-c1ccc(CC(NC(=O)c2c(F)cc(NS(=O)(=O)c3ccc(-n4cncn4)cc3)cc2F)C(=O)O)c2cnccc12` (stereo not drawn) [Example 163, 2-(4-((4-(1H-1,2,4-triazol-1-yl)phenyl)sulfonamido)-2,6-difluorobenzamido)-3-(5-(2,6-dimethoxyphenyl)isoquinolin-8-yl)propanoic acid]: 0.9 nM; for `CCOCc1cc(OC)c(-c2cnc(C[C@H](NC(=O)c3c(F)cc(NS(=O)(=O)c4ccc(-c5ccnc(F)c5)cc4)cc3F)C(=O)O)c3cccnc23)c(OC)c1` [Example 166, (S)-2-(2,6-difluoro-4-((4-(2-fluoropyridin-4-yl)phenyl)sulfonamido)benzamido)-3-(8-(4-(ethoxymethyl)-2,6-dimethoxyphenyl)-1,6-naphthyridin-5-yl)propanoic acid]: 24.4 nM; for `CCOCc1cc(OC)c(-c2cnc(C[C@H](NC(=O)c3c(F)cccc3F)C(=O)O)c3cccnc23)c(OC)c1` [Example 167, (S)-2-(2,6-difluorobenzamido)-3-(8-(4-(ethoxymethyl)-2,6-dimethoxyphenyl)-1,6-naphthyridin-5-yl)propanoic acid]: 836 nM. Consider `CCOCc1cc(OC)c(-c2ncc(C[C@H](NC(=O)c3c(F)cc(N[C@H](CC)C(F)(F)F)cc3F)C(=O)O)c3ccccc23)c(OC)c1` [Example 168, (S)-2-(2,6-difluoro-4-(((R)-1,1,1-trifluorobutan-2-yl)amino)benzamido)-3-(1-(4-(ethoxymethyl)-2,6-dimethoxyphenyl)isoquinolin-4-yl)propanoic acid], for which the EC50 was found to be 26.6 nM.
